Experimental data reported in patent US10463651B2, “3-(1H-pyrrolo[3,2-C]pyridin-2-YL)-1H-indazoles and therapeutic uses thereof” (Samumed, LLC, priority 2015, dated 2019).

Assays:
Type in all cases: cell-based
[1] = system: Wnt activity (Sp5-Luc reporter, SW480 colon carcinoma cells); test: Screening assay for Wnt activity (Sp5-Luc reporter gene assay in SW480 cells); conditions: Homo sapiens; for inhibition at 10 µM: SW480, read-out: percent inhibition at 10 μM; for EC50: Sp5-Luc reporter, SW480 cells, incubated overnight
From the text: The screening assay for Wnt activity is described as follows. Reporter cell lines can be generated by stably transducing cancer cell lines (e.g., colon cancer) or primary cells (e.g., IEC-6 intestinal cells) with a lentiviral construct that includes a Wnt-responsive promoter driving expression of the firefly luciferase gene.
SW480 colon carcinoma cells were transduced with a lentiviral vector expressing luciferase with a human Sp5 promoter consisting of a sequence of eight TCF/LEF binding sites. SW480 cells stably expressing the Sp5-Luc reporter gene and a hygromycin resistance gene were selected by treatment with 150 μg/mL of hygromycin for 7 days. These stably transduced SW480 cells were expanded in cell culture and used for all further screening activities. […] For Sp5-Luc reporter gene assays, the cells were plated at 4,000 cells/well in 384-well plates with medium containing 1% fetal bovine serum and incubated overnight at 37° C. and 5% CO2. Following incubation, 20 μl of BrightGlo luminescence reagent (Promega) was added to each well of the 384-well assay plates. The plates were placed on an orbital shaker for 2 min and then luminescence was quantified using the Envision (Perkin Elmer) plate reader. Readings were normalized to DMSO only treated cells, and normalized activities were utilized for EC50 calculations using the dose-response log (inhibitor) vs. response-variable slope (four parameters) nonlinear regression feature available in GraphPad Prism 5.0 (or Dotmatics).

SW480 colon cancer cells = test: Cell viability assay (CellTiter-Blue); conditions: Homo sapiens; for EC50: 96 h, SW480 cell viability, four days, CellTiter-Blue
Experimental: Representative compounds were screened using the following assay procedure to assess the effect on cell viability as described below.
Approximately 2×10^3 SW480 colon cancer cells were seeded into each well and allowed to incubate in the presence or absence of compound for four days at 37° C./5% CO2. Eight replicates of DMSO-treated cells served as controls and cells treated with compound were performed in duplicate.
After incubation, 20 μL of CellTiter-Blue (Promega) was added to each well allowed to incubate for approximately 3 hours. This reagent was a buffered solution which contains resazurin, metabolically active cells were able to reduce rezarurin (blue) into resorufin (pink) which was highly fluorescent. This measured fluorescence was used as a readout for cell viability.

[2] = system: primary human fibroblasts derived from IPF patients (LL29 cells) treated with TGF-β1; test: Inhibition of the fibrotic process (αSMA staining) in TGF-β1-treated fibroblasts; conditions: Fibroblast, 96 h; for EC50: % αSMA-positive LL29 cells, TGF-β1 20 ng/mL, 4 days; for inhibition at 10 µM: read-out: percent inhibition at 10 μM
Experimental: Representative compounds were screened using primary human fibroblasts (derived from IPF patients) treated with TGF-β1 to determine their ability to inhibit the fibrotic process.
LL29 cells are plated at 1,500 cells/well in 80 μL/well F12 medium supplemented with 1% Fetal Bovine Serum. […] Wells treated with TGF-P1 and containing DMSO were used as controls. […] Following incubation for 4 days, SYTOX green nucleic acid stain (Life Technologies [Thermo Fisher Scientific]) was added to the wells at a final concentration of 1 μM and incubated at room temperature for 30 min.

IL-6 (THP-1 cells) = test: IL-6 inhibition in LPS-stimulated THP-1 cells (HTRF); conditions: Homo sapiens; for EC50: IL6 by HTRF, THP-1 cells, 500 ng/mL LPS, 22 hours; for inhibition at 10 µM: THP-1, read-out: percent inhibition at 10 M
Experimental: THP-1 cells were cultured in basal media with 1% FBS for 24 hours before the start of the assay. […] THP-1 cells were plated at 5000 cells/well in the 384-well plates and incubated at 37° C. for 2 h. 500 ng/mL of LPS was added after 2 hours and cells were incubated for another 22 hours at 37° C. Plates were spun in a centrifuge for 1 minute at […] and a mixture of anti-IL6 XL665, and anti-IL6 Cryptate diluted in reconstitution buffer (Cisbio Inc.) was added to each well. Following incubation for 3 hrs at room temperature, Homogeneous Time-Resolved Fluorescence (HTRF) was measured using the Envision (Perkin Elmer) at 665 nm and […]. The ratio of fluorescence at 665 nm to 620 nm was used as a readout for IL6 quantification. All samples were processed in duplicate. Readings were normalized to DMSO treated cells and normalized activities were utilized for EC50 calculations using the dose-response log (inhibitor) vs. response-variable slope (four parameters) nonlinear regression feature available in GraphPad Prism 5.0 (or Dotmatics).

SMILES | inhibition at 10 µM [1] [%] | EC50 [1] [nM] | EC50 (SW480 colon cancer cells) [nM] | EC50 [2] [nM] | inhibition at 10 µM [2] [%] | EC50 (IL-6 (THP-1 cells)) [nM] | inhibition at 10 µM (IL-6 (THP-1 cells)) [%] | inhibition at 10 µM (SW480 colon cancer cells; SW480, 96 h, read-out: percent inhibition at 10 μM) [%]
CN(C)c1cncc(-c2ccc3[nH]nc(-c4cc5c(-c6cccnc6)nccc5[nH]4)c3c2)c1 [Compound 91, N,N-Dimethyl-5-(3-(4-(pyridin-3-yl)-1H-pyrrolo[3,2-c]pyridin-2-yl)-1H-indazol-5-yl)pyridin-3-amine] | 35.7 | > 10000 | 8080 | > 10000 | 46.9 | 331 | – | –
O=C(Cc1ccccc1)Nc1cncc(-c2ccc3[nH]nc(-c4cc5c(-c6cccc(F)c6)nccc5[nH]4)c3c2)c1 [Compound 10, N-(5-(3-(4-(3-Fluorophenyl)-1H-pyrrolo[3,2-c]pyridin-2-yl)-1H-indazol-5-yl)pyridin-3-yl)-2-phenylacetamide] | – | 875 | 1020 | 630 | – | 660 | – | –
CS(=O)(=O)NCc1cc(F)cc(-c2nccc3[nH]c(-c4n[nH]c5ccc(-c6cncc(NC(=O)C7CC7)c6)cc45)cc23)c1 [Compound 496, N-(5-(3-(4-(3-Fluoro-5-(methylsulfonamidomethyl)phenyl)-1H-pyrrolo[3,2-c]pyridin-2-yl)-1H-indazol-5-yl)pyridin-3-yl)cyclopropanecarboxamide] | – | 370 | 930 | 5120 | – | 137 | – | –
c1cc2[nH]c(-c3n[nH]c4ccc(-c5cncc(OC6CCCCC6)c5)cc34)cc2c(N2CCCCC2)n1 [Compound 607, 5-(5-(Cyclohexyloxy)pyridin-3-yl)-3-(4-(piperidin-1-yl)-1H-pyrrolo[3,2-c]pyridin-2-yl)-1H-indazole] | – | 1140 | 1500 | 487 | – | 1050 | – | –
Fc1cccc(-c2nccc3[nH]c(-c4n[nH]c5ccc(-c6ccncc6)cc45)cc23)c1 [Compound 18, 3-(4-(3-Fluorophenyl)-1H-pyrrolo[3,2-c]pyridin-2-yl)-5-(pyridin-4-yl)-1H-indazole] | 58.3 | > 10000 | 1860 | 4350 | – | > 10000 | 8.4 | –
CC(C)(C)C(=O)Nc1cncc(-c2ccc3[nH]nc(-c4cc5c(-c6ccc(F)cc6)nccc5[nH]4)c3c2)c1 [Compound 36, N-(5-(3-(4-(4-Fluorophenyl)-1H-pyrrolo[3,2-c]pyridin-2-yl)-1H-indazol-5-yl)pyridin-3-yl)pivalamide] | – | 742 | 659 | 745 | – | 207 | – | –
Cn1cc(-c2ccc3[nH]nc(-c4cc5c(-c6cccnc6)nccc5[nH]4)c3c2)cn1 [Compound 556, 5-(1-Methyl-1H-pyrazol-4-yl)-3-(4-(pyridin-3-yl)-1H-pyrrolo[3,2-c]pyridin-2-yl)-1H-indazole] | – | 59 | 448 | 29 | – | 90 | – | –
CN1CCN(c2nccc3[nH]c(-c4n[nH]c5ccc(-c6ccccn6)cc45)cc23)CC1 [Compound 252, 3-(4-(4-Methylpiperazin-1-yl)-1H-pyrrolo[3,2-c]pyridin-2-yl)-5-(pyridin-2-yl)-1H-indazole] | 18.8 | > 10000 | 4690 | 1460 | – | 2750 | – | –
c1ccc(-c2ccc3[nH]nc(-c4cc5c(-c6cccs6)nccc5[nH]4)c3c2)nc1 [Compound 364, 5-(Pyridin-2-yl)-3-(4-(thiophen-2-yl)-1H-pyrrolo[3,2-c]pyridin-2-yl)-1H-indazole] | – | 2220 | 1900 | 1770 | – | > 10000 | 44 | –
Cc1ccncc1-c1ccc2[nH]nc(-c3cc4c(-c5ccc(F)cc5)nccc4[nH]3)c2c1 [Compound 33, 3-(4-(4-Fluorophenyl)-1H-pyrrolo[3,2-c]pyridin-2-yl)-5-(4-methylpyridin-3-yl)-1H-indazole] | – | 3720 | 3850 | 2000 | – | > 10000 | 36.8 | –
Fc1ccc(-c2nccc3[nH]c(-c4n[nH]c5ccc(-c6cn[nH]c6)cc45)cc23)cc1 [Compound 523, 3-(4-(4-Fluorophenyl)-1H-pyrrolo[3,2-c]pyridin-2-yl)-5-(1H-pyrazol-4-yl)-1H-indazole] | – | 111 | 837 | 161 | – | 92 | – | –
CC(C)(C)CC(=O)Nc1cncc(-c2ccc3[nH]nc(-c4cc5c(-c6ccccc6F)nccc5[nH]4)c3c2)c1 [Compound 72, N-(5-(3-(4-(2-Fluorophenyl)-1H-pyrrolo[3,2-c]pyridin-2-yl)-1H-indazol-5-yl)pyridin-3-yl)-3,3-dimethylbutanamide] | – | 445 | > 10000 | > 10000 | 0 | 489 | – | 9.6
COc1cncc(-c2ccc3[nH]nc(-c4cc5c(-c6ccc(C)s6)nccc5[nH]4)c3c2)c1 [Compound 740, 5-(5-Methoxypyridin-3-yl)-3-(4-(5-methylthiophen-2-yl)-1H-pyrrolo[3,2-c]pyridin-2-yl)-1H-indazole] | – | 1150 | 1510 | 445 | – | 5410 | – | –
CS(=O)(=O)NCc1cc(F)cc(-c2nccc3[nH]c(-c4n[nH]c5ccc(-c6cncc(NC(=O)C7CCC7)c6)cc45)cc23)c1 [Compound 497, N-(5-(3-(4-(3-Fluoro-5-(methylsulfonamidomethyl)phenyl)-1H-pyrrolo[3,2-c]pyridin-2-yl)-1H-indazol-5-yl)pyridin-3-yl)cyclobutanecarboxamide] | – | 188 | 492 | 599 | – | 27 | – | –
Fc1ccccc1-c1nccc2[nH]c(-c3n[nH]c4ccc(-c5ccccn5)cc34)cc12 [Compound 84, 3-(4-(2-Fluorophenyl)-1H-pyrrolo[3,2-c]pyridin-2-yl)-5-(pyridin-2-yl)-1H-indazole] | – | 1220 | 1020 | 659 | – | 1960 | – | –
Nc1cncc(-c2ccc3[nH]nc(-c4cc5c(N6CCCCC6)nccc5[nH]4)c3c2)n1 [Compound 992, 6-(3-(4-(Piperidin-1-yl)-1H-pyrrolo[3,2-c]pyridin-2-yl)-1H-indazol-5-yl) pyrazin-2-amine] | – | 93 | 546 | > 10000 | 0 | 93 | – | –
CS(=O)(=O)NCc1cc(F)cc(-c2nccc3[nH]c(-c4n[nH]c5ccc(-c6cncc(OCc7ccccc7)c6)cc45)cc23)c1 [Compound 774, N-(3-(2-(5-(5-(Benzyloxy)pyridin-3-yl)-1H-indazol-3-yl)-1H-pyrrolo[3,2-c]pyridin-4-yl)-5-fluorobenzyl)methanesulfonamide] | – | 1010 | 941 | 2300 | – | > 10000 | 42.4 | –
O=C(Nc1cncc(-c2ccc3[nH]nc(-c4cc5c(-c6cccc(F)c6)nccc5[nH]4)c3c2)c1)C1CCCCC1 [Compound 23, N-(5-(3-(4-(3-Fluorophenyl)-1H-pyrrolo[3,2-c]pyridin-2-yl)-1H-indazol-5-yl)pyridin-3-yl)cyclohexanecarboxamide] | – | 1400 | 1140 | 1460 | – | 108 | – | –
